Measured values reported in patent US8215314B2, “Photochemical tissue bonding” (The General Hospital Corporation, priority 2000, dated 2012).

How the values were obtained:
[1] = system: partial thickness skin grafts; test: Skin graft adherence after PTB, ex vivo (tensiometer); design: species or system mini pigs; conditions: RB concentration 0.1% (w/v) among 0, 0.01, 0.1, 1%
Description: To test the ability of PTB to quickly and effectively bond skin grafts to a wound site, an ex vivo model utilizing mini pigs was developed. The use of porcine models in wound healing is well known by those skilled in the art. The similarities between porcine wound healing and that of humans enable one to extrapolate the therapeutic results obtained in a porcine model system to a therapeutic result in humans.
Partial thickness skin grafts of approximately 0.020 inch (corresponding to the thick partial-thickness grafts used in clinical situation) were harvested from mini pigs (2 to 7 months old, weight 15 to 43 kgs) after euthanasia. The grafts were temporarily stored by wrapping the graft around gauze, which was soaked in phosphate buffered saline (PBS). […]
The grafts were irradiated using a continuous-wave (CW) argon-ion laser (Innova 100; Coherent, Palo Alto, Calif.) at 514.5 nm. […] The irradiance of laser applied was 0.56 and 1.68 W/cm^2 while the dose-dependent response of the laser fluence from 126 to 504 J/cm^2 was determined. […]
Following the irradiation, the adherence of the skin grafts was tested utilizing a tensiometer (Chartillon) coupled to a force transducer (DFA2, Ametek). The applied force versus the displacement of the force plate was acquired through the transducer and recorded by computer software (Labview 4.0, National Instrument). […]

[2] = system: cornea; test: Examination of eyes for thermal damage after PTB (tissue shrinkage, deformation); design: species or system rabbit; conditions: RB PTB
Description: Post-treatment, the eyes were examined for the presence of thermal damage. Tissue shrinkage and deformation around the wound site were taken as signs of thermal damage. Thermal damage to the cornea was not observed at the lowest irradiance tested (1.27 W/cm2). […] Thermal effects produced using high irradiances may produce collagen contraction resulting in distortion of the patient's vision.

[3] = system: pig vein and arteries; test: Ex vivo porcine blood vessel anastomosis by PTB (cuff approach), tensile strength; conditions: 0.1% v/v in saline, 532 nm, 0.5 W/cm2 for 2.5 minutes
Description: In adhering segments of vascular tissue according to methods of the invention, two pieces of blood vessel are joined and photochemically bonded together to create an intimate, watertight seal. Two methods were considered to accomplish anastomosis. The “cuff” approach, which entails administration of the photoactive dye to the outer surface of the proximal vessel and the inside surface of the distal stump of the vessel. The distal stump is folded back on itself and the proximal stump brought into contact. The distal cuff is then placed over the proximal vessel to form a cuff. The overlap region in the cuff is then irradiated with visible light to bond the ends of the vessel together. FIG. 30 represents a schematic overview of the cuff approach.
The cuff approach was used with pig vein and arteries ex vivo. The vessels were sharply transected using a scalpel. Rose bengal at a concentration of 0.1% v/v in saline was applied to the outside surface of the proximal stump of the vessel and the inside surface of the distal vessel. The vessels were then mounted over a cylindrical glass rod that acts as support for the hollow vessels. A distal cuff was formed by folding the end of the distal end back on itself, as described above and in FIG. 30. […]

[4] = system: rabbit (New Zealand White) corneas; test: In vivo PTB of 3.5-mm corneal incisions, incisional bursting pressure; conditions: 1.5 mM RB
Procedure: PTB was performed in vivo in New Zealand rabbits to repair two types of corneal wounds.
In group I 3.5-mm incisions were performed in 20 rabbit (New Zealand White) corneas. Dose and laser irradiance were varied in subgroups of five or more eyes for each condition and appropriate control eyes. Photoactivation was performed with a 514 nm Argon Laser. Wound leak and incisional bursting pressure of the treated and untreated rabbit eyes was determined in vivo, with the animals under anesthetic.
Group I wounds were healed using, e.g., 191 J/cm2, applying 1.5 mM RB. The immediate in vivo bursting pressure was 495±10 mm Hg for PTB treated eyes. Under the same conditions the values of the busting pressure in the control eye varied from 15 to 60 mm Hg. One day after surgery, the bursting pressure was the same for PTB treated eyes and control eyes (approximately 450±125 mmHg). At 14 days, the bursting pressure exceeded 500 mm Hg in both PTB-treated and control eyes.

With `O=C([O-])c1c(Cl)c(Cl)c(Cl)c(Cl)c1-c1c2cc(I)c(=O)c(I)c-2oc2c(I)c([O-])c(I)cc12.[Na+].[Na+]` [Rose Bengal] the “skin graft adherence levels” value [1] was “optimal increase”, the “thermal damage to the cornea” value ([2]; 2.55 W/cm2) was “occasionally” and the “thermal damage to the cornea” value ([2]; 762 to 1524 J/cm2 at 3.82 W/cm2) was “could be observed”. The “thermal damage to the cornea” value ([2]; lowest irradiance 1.27 W/cm2) was “not observed”, the “stretch of anastomosed vessels before rupture” value [3] was 3-4 times their normal length and the “immediate in vivo bursting pressure” value ([4]; 191 J/cm2, 514 nm, 3.5-mm incision) was 495±10 mm Hg. The “bursting pressure at 14 days” value ([4]; 191 J/cm2, also in control eyes) was “exceeded 500 mm Hg” and the “bursting pressure one day after surgery” value ([4]; 191 J/cm2, same as control eyes) was “approximately 450±125 mmHg”.
